Results on 18 molecules are retold here after patent US10611759B2, “Glutaminase inhibitors” (Rhizen Pharmaceuticals SA, priority 2014, dated 2020).

The target in the test is T1, Glutaminase(Brain) (Mus musculus, UniProt D3Z7P3).
T1 sequence (D3Z7P3 55-674): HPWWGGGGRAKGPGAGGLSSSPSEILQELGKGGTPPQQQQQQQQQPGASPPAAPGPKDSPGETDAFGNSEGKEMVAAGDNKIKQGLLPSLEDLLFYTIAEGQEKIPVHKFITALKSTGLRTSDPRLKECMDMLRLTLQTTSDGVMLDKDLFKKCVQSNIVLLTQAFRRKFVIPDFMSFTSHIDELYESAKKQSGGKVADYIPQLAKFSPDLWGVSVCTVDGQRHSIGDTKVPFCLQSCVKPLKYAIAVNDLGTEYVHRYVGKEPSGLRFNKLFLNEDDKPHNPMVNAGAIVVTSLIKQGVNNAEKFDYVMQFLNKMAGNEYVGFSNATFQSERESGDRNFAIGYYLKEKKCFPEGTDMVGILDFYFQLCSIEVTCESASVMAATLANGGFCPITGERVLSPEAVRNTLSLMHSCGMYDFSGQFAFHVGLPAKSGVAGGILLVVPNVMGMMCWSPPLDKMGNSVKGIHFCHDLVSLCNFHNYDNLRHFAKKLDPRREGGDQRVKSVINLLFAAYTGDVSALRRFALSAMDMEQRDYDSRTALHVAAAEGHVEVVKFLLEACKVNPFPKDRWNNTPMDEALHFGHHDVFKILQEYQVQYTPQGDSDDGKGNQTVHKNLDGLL
The test is described as follows: Glutaminase enzyme activity using glutaminase enzyme from mice brain/kidney homogenate (Nessler's reagent, ammonia). The following applies: for inhibition at 0.1 µM: read-out: Glutaminase(Brain) activity % inhibition 0.1 μM; for inhibition at 1 µM: read-out: Glutaminase(Brain) activity % inhibition @1 μM. The test is classed as biochemical. On the procedure: Assay 3: Determination of Glutaminase Enzyme Activity Using Glutaminase Enzyme from Mice Brain/Kidney
Step 1: Preparation of Tissue Homogenates:
Male Balb/c mice were administered 0.28 M ammonium chloride in drinking water for 7 days. The animals were sacrificed and brain/kidney organs collected on dry ice. […] The tissue was homogenized and supernatants were stored at −80° C. until the enzyme assay was performed.
Aim: Compounds were assessed for their ability to inhibit the enzymatic activity of L-glutaminase present in mice brain/kidney homogenate.
Protocol: The assay was performed using a colorimetric method using Nessler's Reagent by quantifying the amount of ammonia formed as a by product during the enzymatic conversion of L-glutamine to glutamate. In the routine assay, 16 μl of tissue homogenate is added to 33 μl of Tris-Hcl phosphate buffer (pH 8) along with 1 μl of DMSO/test compound containing the desired final concentration and vortexed briefly. 50 μl of 20 mM L-glutamine Tris buffer is added to start the reaction and incubated for 15 minutes at 37° C. The ammonia formed is detected by adding 20 μl of reaction mixture to cold water in a 96 well plate followed by 20 μl of Nessler's reagent. The colour developed is measured at 450 nm. Data Analysis: Activity of the test compound is reported as % inhibition and the data is analyzed using Graphpad Prism (Graphpad software; San Diego Calif.) for IC50 determination.

Read-outs that look alike come from different tables or passages of the source.

As to `O=C(Cc1cccnc1)Nc1ccc(N2CCC(c3nnc(NC(=O)Cc4c(F)ccc(F)c4F)s3)CC2)nn1` [Example-19, 2-(Pyridin-3-yl)-N-(6-(4-(5-(2-(2,3,6-trifluorophenyl)acetamido)-1,3,4-thiadiazol-2-yl)piperidin-1-yl)pyridazin-3-yl)acetamide], the inhibition at 0.1 µM (0.1 μM, mice brain homogenate) is 50 to 75%. In addition, the inhibition at 1 µM (1 μM, mice brain homogenate) was in the range of 75 to 100%.
For `O=C(Cc1cccc(OC(F)(F)F)c1)Nc1ccc(N2CCCC(c3nnc(NC(=O)Cc4ccccn4)s3)C2)cn1` (racemic) [Example 2, (RS)-2-(Pyridin-2-yl)-N-(5-(1-(6-(2-(3-(trifluoromethoxy)phenyl)acetamido)pyridin-3-yl)piperidin-3-yl)-1,3,4-thiadiazol-2-yl)acetamide] the same measures were under 25% and 25 to 50%.
Consider `O=C(Cc1cccc(OC(F)(F)F)c1)Nc1ccc(N2CCCC(c3nnc(NC(=O)Cc4ccccn4)s3)C2)cn1` (single isomer, unassigned) [Example 2A, (R) or (S) 2-(Pyridin-2-yl)-N-(5-(1-(6-(2-(3-(trifluoromethoxy)phenyl)acetamido)pyridin-3-yl)piperidin-3-yl)-1,3,4-thiadiazol-2-yl)acetamide], for which, for the setting “0.1 μM, mice brain homogenate”, the inhibition at 0.1 µM was under 25%. The inhibition at 1 µM (1 μM, mice brain homogenate) is under 25%.
As to `COc1ccccc1CC(=O)Nc1nnc(C2CCN(c3ccc(NC(=O)Cc4ccccn4)nn3)CC2)s1` [Example-26, 2-(2-Methoxyphenyl)-N-(5-(1-(6-(2-(pyridin-2-yl)acetamido)pyridazin-3-yl)piperidin-4-yl)-1,3,4-thiadiazol-2-yl)acetamide], the inhibition at 0.1 µM (0.1 μM, mice brain homogenate) is 50 to 75%. Under “1 μM, mice brain homogenate”, the inhibition at 1 µM fell in the range of 75 to 100%.
For `O=C(Cc1ccccn1)Nc1ccc(N2CCC(c3nnc(NC(=O)Cc4ccccc4Cl)s3)CC2)nn1` [Example-27, 2-(2-Chlorophenyl)-N-(5-(1-(6-(2-(pyridin-2-yl)acetamido)pyridazin-3-yl)piperidin-4-yl)-1,3,4-thiadiazol-2-yl)acetamide] the same measures were 50 to 75% and 75 to 100%.
For `O=C(Cc1ccccn1)Nc1ccc(N2CCC(c3nnc(NC(=O)Cc4cccc(F)c4F)s3)CC2)nn1` [Example-21, 2-(2,3-Difluorophenyl)-N-(5-(1-(6-(2-(pyridin-2-yl)acetamido)pyridazin-3-yl)piperidin-4-yl)-1,3,4-thiadiazol-2-yl)acetamide] the same measures were 50 to 75% and 75 to 100%.
Regarding `O=C(Cc1ccccn1)Nc1ccc(N2CCC(c3nnc(NC(=O)Cc4ccc(F)cc4)s3)CC2)nn1` [Example-25, 2-(4-Fluorophenyl)-N-(5-(1-(6-(2-(pyridin-2-yl)acetamido)pyridazin-3-yl)piperidin-4-yl)-1,3,4-thiadiazol-2-yl)acetamide], the inhibition at 0.1 µM (0.1 μM, mice brain homogenate) is 50 to 75%. For the same molecule, the inhibition at 1 µM (1 μM, mice brain homogenate) lay in the range of 75 to 100%.
`O=C(Cc1cccc(OC(F)(F)F)c1)Nc1ccc(N2CCC(c3nnc(NC(=O)C(CO)c4ccccc4)s3)CC2)nn1` (stereo not drawn) [Example-36, 3-Hydroxy-2-phenyl-N-(5-(1-(6-(2-(3-(trifluoromethoxy)phenyl)acetamido)pyridazin-3-yl)piperidin-4-yl)-1,3,4-thiadiazol-2-yl)propanamide]: where the note is “0.1 μM, mice brain homogenate”, the inhibition at 0.1 µM fell in the range of 25 to 50%. For the same molecule, under “1 μM, mice brain homogenate”, the inhibition at 1 µM is 50 to 75%.
The like results for `O=C(Cc1cccc(OC(F)(F)F)c1)Nc1ccc(N2CCC(c3nnc(NC(=O)Cc4ccc5ncccc5c4)s3)CC2)nn1` [Example-30, 2-(Quinolin-6-yl)-N-(5-(1-(6-(2-(3-(trifluoromethoxy)phenyl)acetamido)pyridazin-3-yl)piperidin-4-yl)-1,3,4-thiadiazol-2-yl)acetamide] were, in that order, 50 to 75% and 75 to 100%.
The like results for `O=C(Cc1ccccn1)Nc1ccc(N2CCC(c3nnc(NC(=O)Cc4ccccc4F)s3)CC2)nn1` [Example-23, 2-(2-Fluorophenyl)-N-(5-(1-(6-(2-(pyridin-2-yl)acetamido)pyridazin-3-yl)piperidin-4-yl)-1,3,4-thiadiazol-2-yl)acetamide] were, in that order, 50 to 75% and 75 to 100%.
Take `O=C(Cc1ccccn1)Nc1ccc(N2CCC(c3nnc(NC(=O)Cc4ccc(Cl)cc4)s3)CC2)nn1` [Example-29, 2-(4-Chlorophenyl)-N-(5-(1-(6-(2-(pyridin-2-yl)acetamido)pyridazin-3-yl)piperidin-4-yl)-1,3,4-thiadiazol-2-yl)acetamide]: the inhibition at 0.1 µM (0.1 μM, mice brain homogenate) lay within 50 to 75%. For the same molecule, the inhibition at 1 µM (1 μM, mice brain homogenate) lay in the range of 75 to 100%.
The like results for `O=C(Cc1ccccn1)Nc1ccc(N2CCC(c3nnc(NC(=O)Cc4c(F)ccc(F)c4F)s3)CC2)nn1` [Example-20, 2-(Pyridin-2-yl)-N-(6-(4-(5-(2-(2,3,6-trifluorophenyl)acetamido)-1,3,4-thiadiazol-2-yl)piperidin-1-yl)pyridazin-3-yl)acetamide] were, in that order, 25 to 50% and 50 to 75%.
Take `O=C(Cc1cccc(OC(F)(F)F)c1)Nc1ccc(N2CCC(c3nnc(NC(=O)Cc4c[nH]c5ccccc45)s3)CC2)nn1` [Example-32, N-(6-(4-(5-(2-(1H-indol-3-yl)acetamido)-1,3,4-thiadiazol-2-yl)piperidin-1-yl)pyridazin-3-yl)-2-(3-(trifluoromethoxy)phenyl)acetamide]: the inhibition at 0.1 µM (0.1 μM, mice brain homogenate) fell in the range of 25 to 50%. The inhibition at 1 µM (1 μM, mice brain homogenate) was in the range of 50 to 75%.
For `O=C(Cc1ccccc1F)Nc1ccc(N2CCC(c3nnc(NC(=O)Cc4cnccn4)s3)CC2)nn1` [Example-33, 2-(2-Fluorophenyl)-N-(6-(4-(5-(2-(pyrazin-2-yl)acetamido)-1,3,4-thiadiazol-2-yl)piperidin-1-yl)pyridazin-3-yl)acetamide] the same measures were 25 to 50% and 50 to 75%.
For `O=C(Cc1ccccn1)Nc1ccc(N2CCC(c3nnc(NC(=O)Cc4ccc(F)c(F)c4)s3)CC2)nn1` [Example-22, 2-(3,4-Difluorophenyl)-N-(5-(1-(6-(2-(pyridin-2-yl)acetamido)pyridazin-3-yl)piperidin-4-yl)-1,3,4-thiadiazol-2-yl)acetamide] the same measures were 50 to 75% and 75 to 100%.
For `O=C(Cc1cccc(OC(F)(F)F)c1)Nc1ccc(N2CCC(c3nnc(NC(=O)Cc4cccc(N5CCC5)c4)s3)CC2)nn1` [Example-34, 2-(3-(Azetidin-1-yl)phenyl)-N-(5-(1-(6-(2-(3-(trifluoromethoxy)phenyl)acetamido)pyridazin-3-yl)piperidin-4-yl)-1,3,4-thiadiazol-2-yl)acetamide] the same measures were 25 to 50% and 50 to 75%.
On to `N#Cc1cccc(CC(=O)Nc2nnc(C3CCN(c4ccc(NC(=O)Cc5cccc(OC(F)(F)F)c5)nc4)CC3)s2)c1` [Example-5, 2-(3-Cyanophenyl)-N-(5-(1-(6-(2-(3-(trifluoromethoxy)phenyl)acetamido)pyridin-3-yl)piperidin-4-yl)-1,3,4-thiadiazol-2-yl)acetamide], for which the inhibition at 0.1 µM (0.1 μM, mice brain homogenate) is under 25%. Also, for the setting “1 μM, mice brain homogenate”, the inhibition at 1 µM fell in the range of 25 to 50%.
`O=C(Cc1cccc(OC(F)(F)F)c1)Nc1ccc(N2CCC(c3nnc(NC(=O)Cc4ccccn4)s3)CC2)cn1` [Example 1, 2-(Pyridin-2-yl)-N-(5-(1-(6-(2-(3-(trifluoromethoxy)phenyl)acetamido)pyridin-3-yl)piperidin-4-yl)-1,3,4-thiadiazol-2-yl)acetamide]: the inhibition at 0.1 µM was under 25% and the inhibition at 1 µM lay in the range of 50 to 75%.
